# Measured values published in PubChem BioAssay AID686916 (Sanford-Burnham Center for Chemical Genomics, 2013).
# pIC50: −log10 of the molar value. Several values for one entry are separate records, joined by “and”; a condition that tells them apart may be missing. Identical values can stand only once. Activity calls are given as the source filed them.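 The calls were made as follows: active = concentration halving Nedd8 removal by the CSN enzyme IC50 of 60 µM or lower; inactive = the rest.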
# Molecular target: COP9 signalosome complex subunit 5 (Homo sapiens) (UniProt Q92905)
# Test: Csn5 deneddylation inhibitors, retested RPN11 hits, SAR follow-up, selectivity assay for RPN11 inhibitor project, biochemical, fluorescence polarization, SCF-Nedd8-OG substrate, set 2 (AID 686916)
# Settings: Csn5 deneddylation of SCF-Nedd8-OG
# Sequence of COP9 signalosome complex subunit 5 (Homo sapiens) (Q92905 whole entry, looked up, one chain of several): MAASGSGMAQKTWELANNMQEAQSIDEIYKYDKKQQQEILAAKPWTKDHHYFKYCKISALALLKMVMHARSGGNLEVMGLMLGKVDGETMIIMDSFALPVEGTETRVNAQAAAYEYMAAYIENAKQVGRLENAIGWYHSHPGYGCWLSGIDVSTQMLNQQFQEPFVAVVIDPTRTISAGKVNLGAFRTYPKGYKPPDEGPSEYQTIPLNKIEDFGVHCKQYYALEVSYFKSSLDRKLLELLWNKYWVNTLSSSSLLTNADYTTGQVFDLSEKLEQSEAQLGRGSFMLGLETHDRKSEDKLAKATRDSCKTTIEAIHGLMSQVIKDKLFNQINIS
pIC50,IC50,SMILES
5.37,,O=C(O)c1cnc2c(SSc3cccc4cc(C(=O)O)cnc34)cccc2c1
4.71,,O=C(Sc1cccc2cccnc12)c1ccccc1I
4.58,,CC(C)(C)OC(=O)CCNC(=O)c1cnc2c(SSc3cccc4cc(C(=O)NCCC(=O)OC(C)(C)C)cnc34)cccc2c1
4.93,,CC(C)C[C@H](NC(=O)c1cnc2c(SSc3cccc4cc(C(=O)N[C@@H](CC(C)C)C(=O)O)cnc34)cccc2c1)C(=O)O
5.25,,COc1cccc(C(=O)Sc2cccc3cccnc23)c1
5.51,,O=C(Sc1cccc2cccnc12)c1ccc(F)cc1
4.61,,O=C(Sc1cccc2cccnc12)c1ccc(F)cc1F
5.07,,CC[C@@H](C)[C@H](NC(=O)c1cnc2c(SSc3cccc4cc(C(=O)N[C@H](C(=O)O)[C@H](C)CC)cnc34)cccc2c1)C(=O)O
5.39,,O=C(Sc1cccc2cccnc12)C1CCCCC1
4.70,,COC(=O)c1cnc2c(SSc3cccc4cc(C(=O)OC)cnc34)cccc2c1
4.44,,COC(=O)[C@H](CO)NC(=O)c1cnc2c(SSc3cccc4cc(C(=O)N[C@@H](CO)C(=O)OC)cnc34)cccc2c1
5.08,,CC(C)[C@H](NC(=O)c1cnc2c(SSc3cccc4cc(C(=O)N[C@H](C(=O)O)C(C)C)cnc34)cccc2c1)C(=O)O
4.48,,N#Cc1cccc(C(=O)Sc2cccc3cccnc23)c1
,> 95 µM (inactive),N#Cc1ccc(C(=O)Sc2cccc3cccnc23)cc1
4.93 and 4.50,,CCOc1ccccc1C(=O)Sc1cccc2cccnc12
4.68 and 5.25,,COc1ccccc1C(=O)Sc1cccc2cccnc12
4.91,,Cc1cccc(C(=O)Sc2cccc3cccnc23)c1
4.93,,COC(=O)[C@@H](NC(=O)c1cnc2c(SSc3cccc4cc(C(=O)N[C@H](C(=O)OC)C(C)C)cnc34)cccc2c1)C(C)C
4.40,,O=C(Sc1cccc2cccnc12)c1ccc2c(c1)OCO2
4.76,,O=C(Sc1cccc2cccnc12)c1c(Cl)cccc1Cl
4.89,,COC(=O)C[C@H](NC(=O)c1cnc2c(SSc3cccc4cc(C(=O)N[C@@H](CC(=O)OC)C(=O)OC)cnc34)cccc2c1)C(=O)OC
4.98,,CCCc1ccc(C(=O)Sc2cccc3cccnc23)cc1
4.89,,C[C@@H](C(=O)O)N(C)C(=O)c1cnc2c(SSc3cccc4cc(C(=O)N(C)[C@@H](C)C(=O)O)cnc34)cccc2c1
4.74,,Cc1ccccc1C(=O)Sc1cccc2cccnc12

pIC50,IC50,SMILES
4.89,,COC(=O)[C@H](C)N(C)C(=O)c1cnc2c(SSc3cccc4cc(C(=O)N(C)[C@@H](C)C(=O)OC)cnc34)cccc2c1
4.86,,COc1ccc(C(=O)Sc2cccc3cccnc23)cc1
4.69,,COC(=O)[C@H](C)NC(=O)c1cnc2c(SSc3cccc4cc(C(=O)N[C@@H](C)C(=O)OC)cnc34)cccc2c1
4.86,,COC(=O)[C@H](CC(C)C)NC(=O)c1cnc2c(SSc3cccc4cc(C(=O)N[C@@H](CC(C)C)C(=O)OC)cnc34)cccc2c1
4.84,,COc1ccc(C(=O)Sc2cccc3cccnc23)cc1OC
5.33,,CC[C@@H](C)[C@H](NC(=O)c1cnc2c(SSc3cccc4cc(C(=O)N[C@H](C(=O)OC)[C@@H](C)CC)cnc34)cccc2c1)C(=O)OC
5.20,,O=C(O)[C@@H]1CCCN1C(=O)c1cnc2c(SSc3cccc4cc(C(=O)N5CCC[C@H]5C(=O)O)cnc34)cccc2c1
4.75,,O=C(Sc1cccc2cccnc12)c1ccccc1OC(F)(F)F
4.75,,COC(=O)[C@@H]1CCCN1C(=O)c1cnc2c(SSc3cccc4cc(C(=O)N5CCC[C@H]5C(=O)OC)cnc34)cccc2c1
5.31,,O=C(Sc1cccc2cccnc12)c1ccc(F)c(F)c1
4.84,,O=C(Sc1cccc2cccnc12)c1cccc2ccccc12
,> 95 µM (inactive),O=C(Sc1cccc2cccnc12)c1ccccc1F
5.30,,COc1ccc(C(=O)Sc2cccc3cccnc23)cc1F
4.70,,O=C(Sc1cccc2cccnc12)c1ccccc1Cl
,> 95 µM (inactive),Cc1ccc(C(=O)Sc2cccc3cccnc23)cc1
5.28,,O=C(Sc1cccc2cccnc12)c1ccc(C(F)(F)F)cc1
,> 95 µM (inactive),O=C(Sc1cccc2cccnc12)c1cccc(C(F)(F)F)c1
5.10,,O=C(Sc1cccc2cccnc12)c1ccccc1Br
4.89,,O=C(Sc1cccc2cccnc12)c1ccc([N+](=O)[O-])cc1
4.65,,COC(=O)[C@H](C)NC(=O)c1ccnc2c(SSc3cccc4c(C(=O)N[C@@H](C)C(=O)OC)ccnc34)cccc12
4.81,,CC(C)Cc1ccc(C(=O)Sc2cccc3cccnc23)cc1
5.04,,O=C(Sc1cccc2cccnc12)c1ccccc1[N+](=O)[O-]
4.95,,O=C(Sc1cccc2cccnc12)c1ccccc1
5.58,,O=C(Sc1cccc2cccnc12)c1cccc(Cl)c1
